Measured values taken from ChEMBL document CHEMBL1126157, “QSAR analyses of the substituted indanone and benzylpiperidine rings of a series of indanone-benzylpiperidine inhibitors of acetylcholinesterase” (J Med Chem, 1992).

Key:
Acetylcholinesterase [1] = molecular target: T1, Acetylcholinesterase (Homo sapiens, UniProt P22303)
Description: Inhibition of acetylcholinesterase.

Acetylcholinesterase [2] = molecular target: T1, Acetylcholinesterase; remark: listed apart in the source
Acetylcholinesterase [3] = molecular target: T1, Acetylcholinesterase; remark: listed apart in the source
Description: Inhibition of acetylcholinesterase.

Acetylcholinesterase [4] = molecular target: T1, Acetylcholinesterase; remark: listed apart in the source

T1 sequence (P22303 whole entry): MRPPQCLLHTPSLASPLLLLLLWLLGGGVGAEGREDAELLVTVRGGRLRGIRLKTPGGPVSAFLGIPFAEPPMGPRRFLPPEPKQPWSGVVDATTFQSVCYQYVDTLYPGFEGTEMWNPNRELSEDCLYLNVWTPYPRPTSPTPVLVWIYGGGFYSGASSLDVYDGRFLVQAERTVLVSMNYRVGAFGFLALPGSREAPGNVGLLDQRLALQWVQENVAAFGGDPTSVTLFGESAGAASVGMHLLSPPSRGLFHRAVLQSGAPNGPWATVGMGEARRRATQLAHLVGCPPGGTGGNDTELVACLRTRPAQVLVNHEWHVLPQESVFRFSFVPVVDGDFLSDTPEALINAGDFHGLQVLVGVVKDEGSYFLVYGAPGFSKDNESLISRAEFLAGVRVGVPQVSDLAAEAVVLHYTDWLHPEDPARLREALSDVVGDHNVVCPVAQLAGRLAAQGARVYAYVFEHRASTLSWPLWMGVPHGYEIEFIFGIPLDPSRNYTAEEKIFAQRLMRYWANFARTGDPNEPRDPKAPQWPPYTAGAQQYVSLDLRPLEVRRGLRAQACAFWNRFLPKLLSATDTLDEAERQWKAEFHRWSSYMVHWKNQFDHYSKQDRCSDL

SMILES	IC50 (Acetylcholinesterase [1]) [µM]	IC50 (Acetylcholinesterase [2]) [µM]	IC50 (Acetylcholinesterase [3]) [µM]	IC50 (Acetylcholinesterase [4]) [µM]
COc1cc2c(c(OC)c1)C(=O)C(C)C2 (stereo not given)	0.0251	0.38	–	–
COc1cc2c(cc1OC(C)C)CC(C)C2=O (stereo not given)	0.00891	0.38	–	–
COc1cc2c(cc1OC)C(=O)C(C)C2 (stereo not given)	0.00525	0.38	–	–
CC1Cc2ccccc2C1=O (stereo not given)	0.148	0.38	–	–
COc1ccc2c(c1OC)CC(C)C2=O (stereo not given)	0.02	0.38	–	–
CC1Cc2ccc(F)cc2C1=O (stereo not given)	0.2	0.38	–	–
COc1cc2c(cc1O)CC(C)C2=O (stereo not given)	0.38	0.38	–	–
COc1cc(C)cc(OC)c1OC	–	–	4.9	4.9
Cc1ccc2c(c1)C(=O)C(C)C2 (stereo not given)	0.0692	0.38	–	–
CCOc1cc2c(cc1OCC)C(=O)C(C)C2 (stereo not given)	0.00631	0.38	–	–
COc1ccc(C)cc1OC	–	–	3.98	4.9
Cc1cccc(F)c1	–	–	0.001	4.9
Cc1ccc(F)cc1	–	–	0.00955	4.9
COc1ccc2c(c1)C(=O)C(C)C2 (stereo not given)	0.0813	0.38	–	–
COc1cc2c(cc1O)C(=O)C(C)C2 (stereo not given)	0.00132	0.38	–	–
COc1cccc(C)c1	–	–	0.219	4.9
COc1ccc2c(c1OC)C(=O)C(C)C2 (stereo not given)	0.0871	0.38	–	–
Cc1ccccc1F	–	–	0.00955	4.9
Cc1cccc2c1CC(C)C2=O (stereo not given)	0.00708	0.38	–	–
COc1cccc2c1CC(C)C2=O (stereo not given)	0.012	0.38	–	–
CC1Cc2cc3c(cc2C1=O)OCO3 (stereo not given)	0.0229	0.38	–	–
COc1ccc(OC)c2c1CC(C)C2=O (stereo not given)	0.0363	0.38	–	–
COc1cc2c(c(OC)c1OC)C(=O)C(C)C2 (stereo not given)	0.0132	0.38	–	–
Cc1ccc([N+](=O)[O-])cc1 [4-NITROTOLUENE]	–	–	0.1	4.9
Cc1cccc(C)c1 [M-XYLENE]	–	–	0.002	4.9
Cc1cccc(O)c1 [METACRESOL]	–	–	0.0457	4.9
Cc1ccccc1C [O-XYLENE]	–	–	0.01	4.9
Cc1ccc(C)cc1 [P-XYLENE]	–	–	0.0398	4.9
Cc1ccccc1 [TOLUENE]	–	–	0.00525	4.9
Cc1ccc(O)cc1 [p-CRESOL]	–	–	0.00182	4.9
